# Results from patent publication US20060269631A1, “Morinda citrifolia-based formulation for inhibiting metastasis of carcinogenic cells” (priority 2003, published 2006).
# “And” between values parts separate entries of the source, which are not always exact repeats. Equal values may be shown once. Marks after values point to notes of the source that are not given here.
# Experiments:
# [1] = tested on: B16-F0 murine melanoma cells; experiment: in vivo metastasis test, syngeneic tumor metastasis model of melanoma B16-F0 cells in C57BL/6J mice; conditions: for % Inhibition: vs vehicle control
# Protocol: An in vivo metastasis test was performed, wherein groups of 6 (positive control), 6 (Morinda citrifolia-PPT test group), and 9 (vehicle control) immunocompetent (6-8 weeks old), pathogen-free (SPF) C57BL/6 male mice were used in this study and bred in animal isolator (IVC racks) under specific pathogens free (SPF) condition at 23±1° C. Viable B16F0 murine melanoma cells (ATCC CRL-6322, 6×10^4 in 0.2 mL) were inoculated into experimental mice intravenously, via tail vein. Mice were administered the Morinda citrifolia-PPT, 1% in drinking water ad libitum, for one week prior to tumor cell implantation and three weeks afterwards. Additionally, 0.8 mg Morinda citrifolia-PPT/mouse was injected intraperitoneally (IP) for 21 consecutive days following tumor cell implantation. Concurrently, the reference agent, mitomycin, was administrated IP at 1 mg/Kg twice per week for six doses after tumor cell implantation.
# (§1) In the vehicle control group, the distilled water was administrated at 10 ml/Kg IP for three consecutive weeks. The body weight for all mice was recorded at day 1, day 8, day 15, and day 22 following tumor cell implantation. The lungs were excised and fixed 21 days after tumor inoculation. Metastatic nodules on the lung surface were then counted under a dissecting microscope. The student's t test was used to determine the statistical difference between the groups of treatment and vehicle control groups in a statistic analysis.
# Relating to the Table 1 above, viable B16-F0 murine melanoma cells were inoculated into C57B1/6J mice. Mice were administered ad libitum 1% Morinda citrifolia-PPT one week prior to the implantation and throughout the experiment. […] distilled water (vehicle control), 0.8 mg/m and 4 mg/mouse of Morinda citrifolia-PPT were injected I.P. into mice for 21 consecutive days following the inoculation. Mitomycin was used as a positive control and injected twice a week at 1 mg/Kg for a total of six doses. The lungs were excised and fixed at the end of experiment and the metastasis nodules on the lung surface were counted under a dissecting microscope. The test was used to determine the significant difference between the groups of treatment and vehicle control. (SEM=standard error of mean; ^b p<0.006; ^c p<0.005.)
# In the syngeneic tumor metastasis model of melanoma B16-F0 cells in C57BL/6J mice, MDA-4 was administered at 1% (10 mg/ml) by a drinking method for one week for pre-treatment, and for three weeks after the tumor cells were implanted, during the study and throughout the experiment for a total of 28 treatments. Additionally, MDA-4 at a dose of 0.8 mg/mouse was administered intraperitoneally (IP) daily for a total of 21 consecutive days after tumor cells were implanted in the mice.
# During the experiment, the test substance MDA-4 was provided by Morinda, Inc. and used for in vivo anti-metastasis studies. MDA-4 was dissolved in sterile distilled water and, as stated, administrated with 1% (10 mg/ml) drinking method for one week pre-treatment, and three week after tumor cells were implanted during the study throughout the experiment for a total of 28 treatments. Additionally, as stated, MDA-4 at dose of 0.8 mg/mouse was administrated intraperitoneally (IP) daily for a total of 21 consecutive days after tumor cells implanted.
# The murine melanoma cell line, B16-F0 (ATCC CRL-6322), was purchased from American Type Culture Collection and Dulbecco's Modified Eale's medium, 90% with Fetal Bovine Serum, 10% was used as culture medium. The tumor cells were incubated in an atmosphere containing 5% CO2 at 37° C. The medium was supplemented with 1% Antibiotic-Antimycotic.
# Specific pathogen-free male C57BL/6J mice at 6-8 weeks of age, weighing 24-28 gms were provided by National Taiwan University Animal Center. The animals were housed in Individually Ventilated Cages Racks (IVC Racks, 36 Mini Isolator System) under Specific Pathogen-Free (SPF) conditions throughout the experiment. […]
# [2] = body weight post-implantation and toxic symptoms in the metastasis study; assay type: in vivo, mice
# Protocol: as §1
# [3] = tested on: L-1 sarcoma cells; conditions: in vivo; cited from earlier work
# [4] = tested on: NRK 2 cells, fibronectin-coated well; experiment: adhesion of NRK 2 cells to a fibronectin-coated well; assay type: cell-based, rat
# Protocol: One assay measured the adhesion of NRK 2 (normal rat kidney cell, ATCC CRL-6509) cells to a fibronectin-coated well. Morinda citrifolia-PPT, the 0.1 N NaCl Morinda citrifolia-PPT fraction, GRGDSP peptide (SIGMA), and 0.4% DMSO (SIGMA, vehicle control) in modified MEM-HEPES buffer pH 7.4 (Hyclone) were incubated in separate wells for 30 minutes at 37° C. The reaction was initiated by addition of NRK 2 cells (2×10^6/ml) and run for 30 minutes. Each well was then washed 6 times with Dulbecco's PBS (Hyclone) followed by addition of 5 μM calcein AM (SIGMA) and a further 2 hour incubation period. Quantitation of fluorescent intensity, resulting from interaction of calcein AM with cells attached to the fibronectin coated plate, was read by a SpectrFluor Plus plate reader (AG Flwith excitation at 485 nm and emission at 535 nm.
# Relating to Table 3, NRK 2 cells were used to adhere to fibronectin-coated wells. Quantitation of fluorescent intensity resulting from interaction of calcein AM with cells attached to the fibronectin coated plate was read by a SpectrFluor Plus plate reader.
# [5] = tested on: Lu-ECAM-1; conditions: among a series of carbohydrates; cited from earlier work
# [6] = individual mouse, R = diameter of nodule
compound,measurement,setting,value
CO[C@@]12[C@H](COC(N)=O)C3=C(C(=O)C(C)=C(N)C3=O)N1C[C@@H]1N[C@@H]12 [Mitomycin],metastasis inhibition,"[1]; PPT at 0.8 mg/mouse combined with free drinking, mitomycin at 1 mg/Kg",55%
same,% Inhibition,"[1]; Table 1, PPT 0.8 mg/mouse, mitomycin 1 mg/Kg",60%^c
same,No. of Metastastic Nodules in the Lung,"[1]; Table 4, mean ± SEM, MDA-4 drinking 1% x28 & IP 0.8 mg/mouse x21, mitomycin IP 1 mg/kg x6",22 ± 2
same,% Inh.,"[1]; Table 4, vs vehicle, MDA-4 drinking 1% x28 & IP 0.8 mg/mouse x21, mitomycin IP 1 mg/kg x6",55%
same,"No. of Metastastic Nodules in the Lung, Total Nodules, X ± SEM","[1]; Table 5, group mean",22 ± 2
same,"No. of Metastastic Nodules in the Lung, Total Nodules","[1]; Table 5, individual mouse",23 and 24 and 19
same,% Inhibition,"[1]; Table 5, MDA-4 drinking 1% x28 & IP 0.8 mg/mouse x21, mitomycin IP 1 mg/kg x6",55%
same,"No. of Metastastic Nodules in the Lung, 1 mm<",[1]; [6],6 and 7 and 4
same,"No. of Metastastic Nodules in the Lung, R < 1 mm",[1]; [6],16 and 17 and 15
same,"No. of Metastastic Nodules in the Lung, R > 2 mm",[1]; [6],1 and 0 (2×)
same,No. of Metastasis Nodules in the Lung,"[1]; individual mouse, lungs excised 21 days after inoculation, PPT 0.8 mg/mouse IP x21 + 1% in drinking water, mitomycin 1 mg/Kg IP x6",23 and 24 and 19
same,"Body Weight of Post-Implantation, Day 1, Mean ± SEM",[2]; group mean,27.7 ± 0.9 g
same,"Body Weight of Post-Implantation, Day 8, Mean ± SEM",[2]; group mean,28.0 ± 0.6 g
same,"Body Weight of Post-Implantation, Day 15, Mean ± SEM",[2]; group mean,27.3 ± 0.9 g
same,"Body Weight of Post-Implantation, Day 22, Mean ± SEM",[2]; group mean,27.3 ± 0.9 g
same,body weight change compared to the vehicle control group,[2]; in words,no body weight increase
same,"Body Weight of Post-Implantation, Day 1",[2]; individual mouse,28 g and 29 g and 26 g
same,"Body Weight of Post-Implantation, Day 8",[2]; individual mouse,28 g and 29 g and 27 g
same,"Body Weight of Post-Implantation, Day 15",[2]; individual mouse,27 g and 29 g and 26 g
same,"Body Weight of Post-Implantation, Day 22",[2]; individual mouse,27 g and 29 g and 26 g
O=C[C@H](O)[C@@H](O)[C@@H](O)[C@H](O)CO [D-galactose],inhibition of liver metastasis,[3],inhibit
GRGDSP peptide,"Percentage adhesion inhibition, fibronectin mediated",[4]; Conc. 31.25 μg/ml,16
same,"Percentage adhesion inhibition, fibronectin mediated",[4]; Conc. 62.5 μg/ml,22
same,"Percentage adhesion inhibition, fibronectin mediated",[4]; Conc. 125 μg/ml,43
same,"Percentage adhesion inhibition, fibronectin mediated",[4]; Conc. 250 μg/ml,78
same,"Percentage adhesion inhibition, fibronectin mediated",[4]; Conc. 500 μg/ml,98
arabinogalctose,inhibition of liver metastasis,[3],inhibit
CC(=O)NC1C(OC2C(O)C(CO)OC(OC3C(CO)OC(O)C(O)C3O)C2O)OC(CO)C(O)C1OC1OC(CO)C(O)C(O)C1OC1OC(C)C(O)C(O)C1O (stereo not shown) [Lacto-N-fucopentose I],blocking of adhesion of B16-F10 to Lu-ECAM-1,[5],most effectively blocked adhesion
